Results published in patent publication US10577308B2, “Sodium channel modulators” (The Florey Institute of Neuroscience and Mental Health, priority 2015, dated 2020).
Read-outs that look alike come from different tables or passages of the source.

Legend:
hNav1.2 = hNav1.2 (Homo sapiens (Human), UniProt Q99250); assay: Automated patch clamp (IonWorks Quattro) block of hNav1.2 channels in CHO cells; assay type: cell-based
Source text: (§1) FIG. 1 depicts the voltage sequence used to measure inhibitory activity of compounds as described in Example 3. An automated patch clamp screening assay was used to measure the inhibitory effect (potency) of compounds in three conformational states of the sodium channel: (1) the tonic state (TP1); (2) the frequency-dependent (10 Hz) state (TP11) and (3) the inactivated state (TP12).
(§2) Test Protocol for Determining the Potency of Compounds on Nav1.2 and Nav1.6 Subtypes of Voltage-Gated Sodium Ion Channels Expressed in Mammalian Cells
(§3) Cell culture procedures: Chinese hamster ovary (CHO) cells were stably transfected with the cDNA sequence of either the human SCN2A or SCN8A genes to create hNav1.2 or hNav1.6 cells respectively. The cell lines were cultured in Ham's F-12 medium supplemented with 10% fetal bovine serum and antibiotics in a tissue incubator at 37° C. under a humidified air/CO2 mixture (95/5 v/v). On the day of the experiment, cells were washed twice with Hank's balanced salt solution, treated with trypsin, and resuspended in fresh culture media at a density of 4−6×10^6 cells in 20 ml. Immediately before placing in the IonWorks Quattro instrument, cells were washed in Hank's balanced salt solution to remove culture medium and re-suspended in 3 ml of Hank's balanced salt solution.
(§4) Automated patch clamp recordings of cells using the IonWorks Quattro Instrument: The assay used a 384 microwell plate, which enabled 20 compounds to be studied at four different concentrations in quadruplicate as well as allowing a vehicle control group and a positive control group using mexiletine at 8 different concentrations. Cells were added to the wells of the Population Patch Clamp planar electrode using a 48-channel pipettor in a volume of 6 μL, per well. After 5 minutes incubation at ambient temperature with compounds or vehicle, membrane currents were recorded using the patch clamp amplifier. The pulse pattern was repeated twice, before and after compound addition and peak current amplitudes were measured at three test pulses, TP1, TP11 and TP12 to measure Tonic Block, 10 Hz Frequency-dependent Block and Inactivation State Block, respectively.
(§5) Data analysis: Data acquisition and analyses were carried out using the IonWorks Quattro system operation software which uses an algorithm to correct data for leak currents. Concentration-response curves were fitted by non-linear least squares regression allowing calculation of an IC50 value (μM), being the concentration of the compound producing half-maximal inhibition.

hNav1.6 = hNav1.6 (Homo sapiens (Human), UniProt Q9UQD0); assay: Automated patch clamp (IonWorks Quattro) block of hNav1.6 channels in CHO cells; assay type: cell-based
Source text: as §1, §2, §3, §4, §5

[1] = 10 Hz frequency-dependent block (TP11), read-out: IC50 Nav1.2 10 Hz block
[2] = Inactivated state block (TP12), read-out: IC50 Nav1.2 Inactivated state block
[3] = Tonic block (TP1), read-out: IC50 Nav1.2 Tonic block
[4] = 10 Hz frequency-dependent block (TP11), read-out: IC50 Nav1.6 10 Hz block
[5] = Inactivated state block (TP12), read-out: IC50 Nav1.6 Inactivated state block
[6] = Tonic block (TP1), read-out: IC50 Nav1.6 Tonic block

hNav1.6, sequence (Q9UQD0 whole entry): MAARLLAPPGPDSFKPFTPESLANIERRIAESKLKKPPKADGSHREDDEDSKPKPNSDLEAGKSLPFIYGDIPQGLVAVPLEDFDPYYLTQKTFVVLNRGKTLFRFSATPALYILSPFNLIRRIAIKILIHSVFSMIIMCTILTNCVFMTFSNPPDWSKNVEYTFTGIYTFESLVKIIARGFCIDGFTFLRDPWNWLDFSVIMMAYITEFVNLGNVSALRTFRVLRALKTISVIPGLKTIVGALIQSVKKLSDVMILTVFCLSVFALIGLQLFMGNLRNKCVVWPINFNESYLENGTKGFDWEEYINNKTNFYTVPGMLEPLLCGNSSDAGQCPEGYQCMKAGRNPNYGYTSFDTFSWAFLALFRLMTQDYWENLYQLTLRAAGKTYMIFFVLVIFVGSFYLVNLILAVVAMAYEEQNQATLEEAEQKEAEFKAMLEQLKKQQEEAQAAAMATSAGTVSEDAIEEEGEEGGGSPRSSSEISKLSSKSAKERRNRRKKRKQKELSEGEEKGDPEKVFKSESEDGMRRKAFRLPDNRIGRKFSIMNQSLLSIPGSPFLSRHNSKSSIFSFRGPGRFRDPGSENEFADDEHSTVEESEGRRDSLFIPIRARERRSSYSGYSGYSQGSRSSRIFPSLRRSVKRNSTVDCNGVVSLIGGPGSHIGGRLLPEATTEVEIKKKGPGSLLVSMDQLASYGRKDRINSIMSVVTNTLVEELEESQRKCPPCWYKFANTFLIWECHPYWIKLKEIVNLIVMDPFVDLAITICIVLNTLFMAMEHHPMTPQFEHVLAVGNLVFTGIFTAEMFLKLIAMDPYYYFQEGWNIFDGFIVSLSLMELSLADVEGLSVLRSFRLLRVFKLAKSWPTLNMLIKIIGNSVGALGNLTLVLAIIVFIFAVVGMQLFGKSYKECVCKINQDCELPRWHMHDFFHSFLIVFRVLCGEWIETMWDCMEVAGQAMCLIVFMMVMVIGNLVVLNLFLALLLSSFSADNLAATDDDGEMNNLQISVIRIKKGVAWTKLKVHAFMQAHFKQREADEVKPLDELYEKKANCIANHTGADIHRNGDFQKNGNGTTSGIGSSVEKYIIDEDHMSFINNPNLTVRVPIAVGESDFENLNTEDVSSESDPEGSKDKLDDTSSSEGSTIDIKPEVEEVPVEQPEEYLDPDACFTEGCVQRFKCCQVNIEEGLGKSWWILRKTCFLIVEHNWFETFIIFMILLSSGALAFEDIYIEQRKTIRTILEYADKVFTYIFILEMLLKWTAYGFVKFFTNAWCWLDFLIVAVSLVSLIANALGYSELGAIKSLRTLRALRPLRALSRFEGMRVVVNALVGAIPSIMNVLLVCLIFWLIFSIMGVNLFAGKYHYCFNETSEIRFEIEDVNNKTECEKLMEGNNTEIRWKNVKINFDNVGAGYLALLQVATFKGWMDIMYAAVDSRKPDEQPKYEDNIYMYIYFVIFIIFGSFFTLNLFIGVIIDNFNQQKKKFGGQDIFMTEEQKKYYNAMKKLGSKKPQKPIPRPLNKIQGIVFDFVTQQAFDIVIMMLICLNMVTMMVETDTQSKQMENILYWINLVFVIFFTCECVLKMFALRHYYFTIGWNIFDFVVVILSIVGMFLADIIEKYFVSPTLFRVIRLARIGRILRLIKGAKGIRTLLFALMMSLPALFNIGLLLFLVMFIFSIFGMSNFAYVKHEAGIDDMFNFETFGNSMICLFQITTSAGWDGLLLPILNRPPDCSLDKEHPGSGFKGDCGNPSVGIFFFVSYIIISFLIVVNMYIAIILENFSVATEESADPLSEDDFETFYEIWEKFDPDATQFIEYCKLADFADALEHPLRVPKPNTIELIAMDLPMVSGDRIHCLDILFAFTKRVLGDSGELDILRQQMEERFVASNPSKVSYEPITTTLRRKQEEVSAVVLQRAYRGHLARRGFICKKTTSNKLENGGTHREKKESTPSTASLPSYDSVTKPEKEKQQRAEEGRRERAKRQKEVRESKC
hNav1.2, sequence (Q99250 whole entry): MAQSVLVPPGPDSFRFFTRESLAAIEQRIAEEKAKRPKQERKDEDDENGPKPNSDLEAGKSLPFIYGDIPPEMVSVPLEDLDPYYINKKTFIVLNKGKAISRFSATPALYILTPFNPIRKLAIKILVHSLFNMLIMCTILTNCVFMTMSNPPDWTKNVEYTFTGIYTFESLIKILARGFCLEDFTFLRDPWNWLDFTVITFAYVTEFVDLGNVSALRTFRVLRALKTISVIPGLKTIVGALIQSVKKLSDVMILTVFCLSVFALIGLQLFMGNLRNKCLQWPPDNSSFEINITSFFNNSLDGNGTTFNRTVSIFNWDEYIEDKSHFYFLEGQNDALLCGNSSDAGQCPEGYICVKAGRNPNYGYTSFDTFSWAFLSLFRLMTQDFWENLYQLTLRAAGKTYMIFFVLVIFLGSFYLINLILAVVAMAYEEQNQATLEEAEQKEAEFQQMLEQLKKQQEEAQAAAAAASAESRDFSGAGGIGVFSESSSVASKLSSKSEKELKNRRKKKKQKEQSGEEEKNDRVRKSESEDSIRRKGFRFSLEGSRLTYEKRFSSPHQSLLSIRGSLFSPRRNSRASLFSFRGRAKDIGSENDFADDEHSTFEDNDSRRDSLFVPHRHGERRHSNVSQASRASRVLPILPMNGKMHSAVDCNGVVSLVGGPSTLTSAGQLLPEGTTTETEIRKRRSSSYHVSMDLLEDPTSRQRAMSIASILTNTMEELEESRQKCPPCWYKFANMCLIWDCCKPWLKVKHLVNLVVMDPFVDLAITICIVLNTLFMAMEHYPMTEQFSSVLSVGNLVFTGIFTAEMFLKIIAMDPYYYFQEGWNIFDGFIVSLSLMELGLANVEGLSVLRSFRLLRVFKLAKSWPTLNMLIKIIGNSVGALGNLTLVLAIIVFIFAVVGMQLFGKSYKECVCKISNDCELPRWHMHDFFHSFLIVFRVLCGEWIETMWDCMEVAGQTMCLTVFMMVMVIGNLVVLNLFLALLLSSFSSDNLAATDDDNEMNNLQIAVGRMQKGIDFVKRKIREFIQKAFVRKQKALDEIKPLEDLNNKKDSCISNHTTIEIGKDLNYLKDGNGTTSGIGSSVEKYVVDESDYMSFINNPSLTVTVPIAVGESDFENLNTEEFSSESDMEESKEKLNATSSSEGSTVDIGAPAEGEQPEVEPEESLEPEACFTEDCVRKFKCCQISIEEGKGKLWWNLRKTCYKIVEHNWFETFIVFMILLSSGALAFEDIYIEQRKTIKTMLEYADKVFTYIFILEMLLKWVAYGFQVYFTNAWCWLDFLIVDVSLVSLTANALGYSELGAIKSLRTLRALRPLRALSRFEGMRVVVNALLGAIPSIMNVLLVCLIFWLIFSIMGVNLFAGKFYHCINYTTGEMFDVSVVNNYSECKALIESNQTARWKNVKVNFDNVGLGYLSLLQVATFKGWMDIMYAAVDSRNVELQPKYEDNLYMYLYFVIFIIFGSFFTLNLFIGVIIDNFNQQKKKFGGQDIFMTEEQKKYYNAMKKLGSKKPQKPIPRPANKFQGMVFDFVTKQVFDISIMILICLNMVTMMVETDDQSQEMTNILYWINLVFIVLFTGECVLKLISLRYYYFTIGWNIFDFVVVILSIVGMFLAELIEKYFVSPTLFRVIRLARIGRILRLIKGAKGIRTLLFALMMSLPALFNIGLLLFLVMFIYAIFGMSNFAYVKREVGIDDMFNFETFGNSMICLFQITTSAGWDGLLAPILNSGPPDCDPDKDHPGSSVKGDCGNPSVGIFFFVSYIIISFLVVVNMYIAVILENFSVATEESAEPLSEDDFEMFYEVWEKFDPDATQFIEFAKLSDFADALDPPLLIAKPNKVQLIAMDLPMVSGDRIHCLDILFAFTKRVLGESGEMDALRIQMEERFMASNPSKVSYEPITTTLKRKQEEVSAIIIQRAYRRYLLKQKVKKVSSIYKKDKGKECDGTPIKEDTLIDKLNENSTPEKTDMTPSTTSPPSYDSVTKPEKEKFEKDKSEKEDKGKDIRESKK

| Compound | IC50 (hNav1.2; [1]) | IC50 (hNav1.2; [2]) | IC50 (hNav1.2; [3]) | IC50 (hNav1.6; [4]) | IC50 (hNav1.6; [5]) | IC50 (hNav1.6; [6]) |
| --- | --- | --- | --- | --- | --- | --- |
| Cc1nn(C)c(C)c1OCCCNCc1cccc(-c2cncnc2)c1 [Compound 645, N-(3-(Pyrimidin-5-yl)benzyl)-3-(1,3,5-trimethyl-1H-pyrazol-4-yloxy)propan-1-amine] | > 10 µM | > 10 µM | > 10 µM | > 10 µM | > 10 µM | > 10 µM |
| 3-(2,6-Dimethylphenoxy)-N-(3-(trifluoromethyl)benzyl)propan-1-amine [Compound 533] | 6.1 µM | 2 µM | ~10.1 µM | 4.3 µM | 2.3 µM | 7.1 µM |
| COc1ccccc1CNCCCOc1c(C)cccc1C [Compound 530, 3-(2,6-Dimethylphenoxy)-N-(2-methoxybenzyl)propan-1-amine] | 2.9 µM | 1.1 µM | 7.8 µM | 1.7 µM | 0.8 µM | 2.9 µM |
| Cc1cccc(C)c1OCCCNCc1ccccc1C(F)(F)F [Compound 534, 3-(2,6-Dimethylphenoxy)-N-(2-(trifluoromethyl)benzyl)propan-1-amine] | 7.1 µM | 2.1 µM | > 10 µM | 4.1 µM | 2.3 µM | 8.1 µM |
| Cc1cccc(C)c1OCCCNCc1cccc(-c2ccc(F)cc2)c1 [Compound 557, 3-(2,6-Dimethylphenoxy)-N-((4′-fluorobiphenyl-3-yl)methyl)propan-1-amine] | 9.3 µM | 3.2 µM | > 30 µM | > 30 µM | > 30 µM | > 30 µM |
| Cc1cccc(C)c1OCCCNCc1cc(Cl)c(O)c(Cl)c1 [Compound 504, 2,6-Dichloro-4-((3-(2,6-dimethylphenoxy)propylamino)methyl)phenol] | > 10 µM | 4.4 µM | > 10 µM | > 10 µM | > 10 µM | > 10 µM |
| Cc1cccc(C)c1OCCCNCc1ccc(F)cc1 [Compound 521, 3-(2,6-Dimethylphenoxy)-N-(4-fluorobenzyl)propan-1-amine] | 8.4 µM | 2.8 µM | ~10.2 µM | 2.2 µM | 1.4 µM | 4.5 µM |
| Cc1cccc(C)c1OCCCNCc1cc(C(C)(C)C)cc(C(C)(C)C)c1 [Compound 559, N-(3,5-Di-tert-butylbenzyl)-3-(2,6-dimethylphenoxy)propan-1-amine] | > 10 µM | > 10 µM | > 10 µM | > 10 µM | > 10 µM | > 10 µM |
| Cc1cccc(C)c1OCCCNCc1c2ccccc2nn1Cc1ccccc1 [Compound 555, N-((2-Benzyl-2H-indazol-3-yl)methyl)-3-(2,6-dimethylphenoxy)propan-1-amine] | > 10 µM | 9.3 µM | > 10 µM | > 10 µM | 3.7 µM | > 10 µM |
| 3-((3-(2,6-Dimethylphenoxy)propylamino)methyl)benzonitrile [Compound 524] | 9.6 µM | > 10 µM | > 10 µM | 3.9 µM | > 10 µM | 7.8 µM |
| COc1ccc(CNCCCOc2c(C)cccc2C)cc1 [Compound 520, 3-(2,6-Dimethylphenoxy)-N-(4-methoxybenzyl)propan-1-amine] | 2.1 µM | 1 µM | 6.3 µM | 2.6 µM | 1.5 µM | 4.9 µM |
| Cc1cccc(C)c1OCCCNC(C)c1ccccc1 (stereo not drawn) [Compound 553, 3-(2,6-Dimethylphenoxy)-N-(1-phenylethyl)propan-1-amine] | 1.2 µM | 0.2 µM | 3.6 µM | 1 µM | 0.3 µM | 1.6 µM |
| Cc1cccc(C)c1OCCCNC(c1ccccc1)c1ccccc1 [Compound 554, N-Benzhydryl-3-(2,6-dimethylphenoxy)propan-1-amine] | 32.2 µM | 1.4 µM | > 1000 µM | > 1000 µM | > 1000 µM | > 1000 µM |
| Cc1cccc(C)c1OCCCNCc1cccc(-c2ccccc2F)c1 [Compound 556, 3-(2,6-Dimethylphenoxy)-N-((2′-fluorobiphenyl-3-yl)methyl)propan-1-amine] | 4.5 µM | 2.1 µM | > 30 µM | > 30 µM | 8 µM | > 30 µM |
| Cc1cccc(C)c1OCCCNCc1ccc(O)cc1 [Compound 550, 4-((3-(2,6-Dimethylphenoxy)propylamino)methyl)phenol] | 5.1 µM | 2.2 µM | > 10 µM | 4.8 µM | 2.2 µM | > 10 µM |
| Cc1cccc(C)c1OCCCNCc1cccc(-c2cncnc2)c1 [Compound 558, 3-(2,6-Dimethylphenoxy)-N-(3-(pyrimidin-5-yl)benzyl)propan-1-amine] | 0.6 µM | 0.2 µM | 1.2 µM | 0.4 µM | 0.3 µM | 0.4 µM |
| Cc1cccc(C)c1OCCCNCc1ccc(OC(F)(F)F)cc1 [Compound 531, 3-(2,6-Dimethylphenoxy)-N-(4-(trifluoromethoxy)benzyl)propan-1-amine] | 3.6 µM | 1.4 µM | 12.5 µM | 56.3 µM | 40.9 µM | 138 µM |
| Cc1nn(C)c(C)c1OCCCNC(c1ccccn1)c1ccccn1 [Compound 644, N-(Dipyridin-2-ylmethyl)-3-(1,3,5-trimethyl-1H-pyrazol-4-yloxy)propan-1-amine] | > 10 µM | > 10 µM | > 10 µM | > 10 µM | > 10 µM | > 10 µM |
| Cc1cccc(C)c1OCCCNC(c1ccccn1)c1ccccn1 [Compound 562, 3-(2,6-Dimethylphenoxy)-N-(dipyridin-2-ylmethyl)propan-1-amine] | 1.2 µM | 0.1 µM | > 30 µM | 1.3 µM | 0.1 µM | > 30 µM |
| Cc1cccc(C)c1OCCCNCc1ccc(C#N)cc1 [Compound 519, 4-((3-(2,6-Dimethylphenoxy)propylamino)methyl)benzonitrile] | 8.3 µM | 2.1 µM | > 10 µM | 3.4 µM | 1.8 µM | 5.6 µM |
| Cc1cccc(C)c1OCCCNCc1cccc(F)c1 [Compound 552, 3-(2,6-Dimethylphenoxy)-N-(3-fluorobenzyl)propan-1-amine] | 8.1 µM | 2.4 µM | 9.5 µM | 1.9 µM | 1.2 µM | 3.1 µM |
| COc1cccc(CNCCCOc2c(C)cccc2C)c1 [Compound 525, 3-(2,6-Dimethylphenoxy)-N-(3-methoxybenzyl)propan-1-amine] | 1.5 µM | 0.4 µM | 4.8 µM | 3.2 µM | 1.8 µM | 7.9 µM |
| Cc1cccc(C)c1OCCCNCc1nn(Cc2ccccc2)c2ccccc12 [Compound 540, N-((1-Benzyl-1H-indazol-3-yl)methyl)-3-(2,6-dimethylphenoxy)propan-1-amine] | 2.3 µM | 1.2 µM | 23.5 µM | 142 µM | 80.5 µM | 287 µM |
